The assay concerns the target DNA damage-binding protein 1/Protein cereblon (Homo sapiens, UniProt Q96SW2). In words: CRBN Fluorescence Polarization Assay. As for the experimental part: In this competitive fluorescent polarization assay Cy5 conjugated lenalidomide analog (Cy5-O-Len)13 was used as a fluorescent probe. 6×His-CRBN-DDB1 protein (200 nM) and Cy5-O-Len probe (30 nM) were combined in 20 mM HEPES pH 7, 150 mM NaCl, 0.005% Tween-20 assay buffer. 20 μL of this assay cocktail was dispensed into wells of Corning 3821 black 384-well plates. Compounds were transferred to the assay plate from a dose-response plate using a Pintool on a Biomek FXP Laboratory Automation Workstation (Beckman Coulter). The plates were incubated in the dark for 1 hour at room temperature and then read on an Envision plate reader (PerkinElmer, Massachusetts, USA). IC50 values were determined using a proprietary software RISE (Robust Investigation of Screening Experiments), developed in house on the Pipeline Pilot platform (Biovia, v. 17.2.0). Data represent the mean of three independent determinations.
In general terms: Fluorescence polarisation rises when a labelled molecule tumbles more slowly, as on binding a larger partner.

For orientation: IC50 means the concentration that gives 50% inhibition.

Turning to `O=C1CCC(N2Cc3cc(NC(=O)Cc4ccccn4)ccc3C2=O)C(=O)N1` (stereo unspecified) [US20260014133, Compound 28], the IC50 is < 1000 nM.

(Values after BindingDB's records for patent US20260014133 (St. Jude''s Chidren''s Research Hospital, Inc., 2026).)
